From patent US8268961B2, “Antibacterial peptides and analogues thereof” (Universita Degli Studi di Siena, priority 2004, dated 2012)
Entries after “also recorded” stand apart in the source; their conditions may differ. Read-outs that look alike come from different tables or passages of the source. Positions of bridges follow the written chain, without caps; N, C: chain ends. Chains are numbered I, II in the order given. No end group written: not given here.

Tests used:
[1] = system: murine macrophage cells J774 A.1; assay: Cytotoxicity test by MTT; type: cell-based, mouse
In short: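 J774 A.1 cells in DMEM with 10% foetal bovine serum and antibiotics were exposed to filtered peptides at various concentrations overnight at 37 °C. Viability read by MTT (0.5 mg/ml, 90 min), solubilised in SDS 10%/DMF 45% at pH 4.5, absorbance at 595/650 nm.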

E. coli strain TG1 = assay: Test of antibacterial activity (colony growth inhibition) on E. coli strain TG1; type: cell-based; details: E. coli TG1, colony counting vs control without peptide
In short: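 E. coli TG1 (OD600 0.2) was incubated 75 min at 37 °C with peptide in PBS at 0.12–2 mg/ml. Cells were then diluted 1:1000, plated on 2×TY agar and grown overnight at 30 °C, and colonies were counted against an untreated control.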

[2] = system: Chryseobacterium meningosepticum CCUG4310; assay: MIC, standard microdilution assay; type: cell-based; details: Chryseobacterium meningosepticum CCUG4310, reference strain
From the text: (§1) MIC is defined as the lowest concentration, in an antibiotic dilution range, that inhibits visible bacterial growth. The importance of MIC sensitivity test is based on the principle that in vitro sensitivity provides a predictive indication of the in vivo efficacy of the antibiotic therapy. Values are expressed as molar concentration and compared to MIC values obtained with commercially available antibiotics such as amikacin, ceftriaxone and levofloxacin (Table 3).
(§2) Reference strains (Escherichia coli ATCC 25922, Pseudomonas aeruginosa ATCC 27853, Staphylococus aureus ATCC 25923 and Chryseobacterium meningosepticum CCUG 4310) and several recent clinical isolates (including multidrug-resistant ones) of various species (Table 2) were used for conventional susceptibility testing experiments. Minimum Inhibitory Concentration (MIC) was determined by a standard microdilution assay as recommended by the National Commitee for Clinical Laboratory Standards (NCCLS) using cation-supplemented Mueller-Hinton (MH) broth (Oxoid Ltd. Basingstoke, UK) and a bacterial inoculum of 5×10^4 CFU per well, in a final volume of 100 μl. Results were recorded by visual inspection after 24 h of incubation at 37° C.

[3] = system: Serratia marcescens W99FI0111; assay: MIC, standard microdilution assay; type: cell-based; details: Serratia marcescens W99FI0111, FQR AGR ESCR (ESBL/SHV-5)
From the text: as §1, §2

[4] = system: Providencia stuartii W03FI0001; assay: MIC, standard microdilution assay; type: cell-based; details: Providencia stuartii W03FI0001, AGR ESCR (ESBL/PER-1)
From the text: as §1, §2

[5] = system: Morganella morganii W03VA1342; assay: MIC, standard microdilution assay; type: cell-based; details: Morganella morganii W03VA1342, FQR ESCR (ESBL/CTX-M-1)
From the text: as §1, §2

[6] = system: Stenotrophomonas maltophilia PT4/99; assay: MIC, standard microdilution assay; type: cell-based; details: Stenotrophomonas maltophilia PT4/99, wild-type profile
From the text: as §1, §2

[7] = system: Proteus mirabilis W99FI0089; assay: MIC, standard microdilution assay; type: cell-based; details: Proteus mirabilis W99FI0089, FQR
From the text: as §1, §2

P. aeruginosa ATCC 27853 = assay: Minimal bactericidal concentration (MBC); type: cell-based
Method: as §2
The MBC was determined as recommended by the National Committee for Clinical Laboratory Standards (NCCLS) on strains of E. coli ATCC 25922 and P. aeruginosa ATCC 27853.

[8] = LPS binding by Plasmon Surface Resonance (Biacore); details: M6 immobilised on BIACORE sensorchip
Method: FIG. 11. Binding analysis between MAP M6 peptide and LPS in BIACORE. […] On the y-axis are shown the Units of Response derived from the binding between LPS and M6 as a function of time expressed in seconds (on the x-axis)
The ability of MAP peptides to perforate the bacterial membrane was evaluated measuring the activity of cytoplasmatic beta-galactosidase (24) in surpernatants of E. coli strain ML-35 incubated with the peptide and using p-nitrophenyl-β-D-galactopyranoside (pNPG) as a substrate. pNPG is digested by beta-galactosidase, therefore releasing p-nitro-phenolate detectable by spectrophotometric reading at 420 nm (FIG. 10). […] The activity of dendrimeric peptides against the inner membrane was evaluated at concentrations of 16, 32 and 64 μg/ml. All dendrimeric peptides permeabilized bacterial inner membrane at 16 μg/ml (FIG. 9). Permeabilization occurred after a lag of less than 1 minute, and the rate of permeabilization depended on peptide concentration (not shown). Moreover, the ability of the M6 MAP peptide to bind the bacterial lipopolysaccharide (LPS) was assayed by Plasmon Surface Resonance in a Biacore 1000 instrument (FIG. 11) using a protocol perfected by the authors (26).

## I: QKKIRVRLSAKKA-OH / II: QKKIRVRLSAK / III: QKKIRVRLSA / IV: QKKIRVRLSA (amide I:11-IV:C, I:12-II:C, II:11-III:C) [M6, QKKIRVRLSA]
[1]
  Concentration at and over which a drop in cell viability was evident (MTT): ≥ 125 µg/mL
  Vitality of J774 A.1 cells as the concentration of MAP peptides increases (MTT): decreases
E. coli strain TG1
  Antibacterial activity on E. coli TG1 colony growth: good antibacterial activity
[2]
  MIC (Molarity): >49 µM
[3]
  MIC (Molarity): >49 µM
[4]
  MIC (Molarity): >49 µM
[5]
  MIC (Molarity): >49 µM
[6]
  MIC (Molarity): >49 µM
[7]
  MIC (Molarity): >49 µM
P. aeruginosa ATCC 27853
  MBC (minimal concentration able to kill 99.9% of the inoculum) compared with MIC: equal to the calculated values of MIC
P. aeruginosa ATCC 27853; listed as QKKIRVRLSA
  MBC (minimal concentration able to kill 99.9% of the inoculum) compared with MIC: equal to the corresponding MIC values
[8]
  Binding to bacterial lipopolysaccharide (LPS), sensorgram: effectively binds; also recorded: rapid binding
